Experimental data reported in ChEMBL document CHEMBL1144945, “Development of progesterone receptor antagonists from 1,2-dihydrochromeno[3,4-f]quinoline agonist pharmacophore” (Bioorg Med Chem Lett, 2003).

Tests used:
Progesterone receptor [1] = molecular target: T1, Progesterone receptor (Homo sapiens, UniProt P06401); assay: Inhibition of human progesterone in T47D human breast cancer cell; assay type: cell-based
T1 sequence (P06401 whole entry): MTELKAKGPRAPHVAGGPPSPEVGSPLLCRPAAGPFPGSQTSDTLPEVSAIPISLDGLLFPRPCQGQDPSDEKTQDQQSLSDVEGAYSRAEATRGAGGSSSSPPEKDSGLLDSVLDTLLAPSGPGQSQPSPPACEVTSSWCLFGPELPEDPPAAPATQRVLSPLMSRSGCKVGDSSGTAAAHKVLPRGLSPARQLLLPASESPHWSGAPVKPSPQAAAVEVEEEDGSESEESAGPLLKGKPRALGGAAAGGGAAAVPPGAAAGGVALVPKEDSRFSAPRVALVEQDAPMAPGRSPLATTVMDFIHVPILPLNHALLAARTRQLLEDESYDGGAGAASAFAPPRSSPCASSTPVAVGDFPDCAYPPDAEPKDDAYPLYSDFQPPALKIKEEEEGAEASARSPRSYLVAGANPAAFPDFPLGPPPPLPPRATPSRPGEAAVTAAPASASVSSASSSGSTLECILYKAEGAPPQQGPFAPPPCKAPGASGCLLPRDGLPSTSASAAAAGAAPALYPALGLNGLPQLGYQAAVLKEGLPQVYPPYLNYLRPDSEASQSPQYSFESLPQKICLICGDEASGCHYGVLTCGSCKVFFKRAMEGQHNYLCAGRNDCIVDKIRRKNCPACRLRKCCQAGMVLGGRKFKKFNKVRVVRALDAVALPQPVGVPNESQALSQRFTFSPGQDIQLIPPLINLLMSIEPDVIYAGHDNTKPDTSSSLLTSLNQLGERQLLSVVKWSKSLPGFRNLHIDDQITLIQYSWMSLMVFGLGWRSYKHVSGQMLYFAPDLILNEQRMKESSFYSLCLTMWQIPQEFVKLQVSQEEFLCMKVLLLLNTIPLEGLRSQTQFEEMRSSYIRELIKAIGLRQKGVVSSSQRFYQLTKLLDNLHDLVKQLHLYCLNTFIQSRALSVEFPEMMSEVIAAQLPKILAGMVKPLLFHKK

Progesterone receptor [2] = molecular target: T1, Progesterone receptor; assay: Effective concentration for human progesterone in T47D human breast cancer cell; assay type: cell-based, Cancer cell lines
[3] = molecular target: T2, Progesterone receptor (Homo sapiens) (UniProt P06401); assay: Agonist efficacy for human progesterone in T47D human breast cancer cell; assay type: functional, cell-based
T2 sequence (whole entry): T1 sequence (P06401 whole entry)

IC50 (Progesterone receptor [1]): 0.086 µM
EC50 (Progesterone receptor [2]): 0.244 µM
Efficacy [3]: 42%
Compound: CC1=CC(C)(C)Nc2ccc3c(c21)COc1c(F)cc(F)cc1-3
